Results as given in patent US6630615B1, “Defense-related signaling genes and methods of use” (Pioneer Hi-Bred International, Inc., priority 1999, dated 2003).
“Also recorded” adds a separate entry of the source.

These compounds were tested on sunflower NCE gene expression (assay: Northern blot analysis of NCE gene transcript levels under different chemical treatments). Details: six-week-old SMF3 sunflower plants sprayed with 5 mM oxalic acid, 5 mM H2O2, 5 mM salicylic acid or 45 μM jasmonic acid (0.1% ethanol); leaf samples at 0, 6, 12, 24 hours.
Format: in vivo
Method: FIG. 4 depicts the results of a Northern blot analysis of NCE gene transcript levels under different chemical treatments. Six-week-old sunflower plants were sprayed with oxalic acid (OA) (5 mM), H2O2 (5 mM), salicylic acid (SA) (5 mM), and jasmonic acid (JA) (45 μM in 0.1% ethanol). The leaf samples were collected at 0, 6, 12, and 24 hours after the applications and immediately frozen in liquid nitrogen. Twenty μg of total RNA was loaded in each sample lane. (CK, control)
For fungal infection and chemical treatments, SMF3 sunflower plants were planted in four-inch pots and grown in greenhouse for the first four weeks. After transfer to the growth chamber, the plants were maintained under 12-hour photoperiod at 22° C. with an 80% relative humidity. Six-week old plants were inoculated with Sclerotinid-infected carrot plugs or sprayed with an aqueous solution of either 5 mM oxalic acid, 5 mM H2O2, 5 mM salicylic acid or 45 μM jasmonic acid (with 0.1% ethanol). For each plant, three petioles were inoculated and wrapped with a 1 inch×2 inch piece of parafilm. Plant tissue samples were harvested at different time points and immediately frozen in liquid nitrogen and then stored at −80° C.
Plant materials were ground in liquid nitrogen, and total RNA was extracted by the Tri-Reagent method. RNA profiling was conducted using CuraGen Corporation's proprietary method sold under the trademark GENECALLING. See U.S. Pat. No. 5,871,697, herein incorporated by reference. Profiles of RNA samples prepared from combined leaf and stem tissues of six-week-old oxox sunflower plants were compared to profiles of similar RNA samples from of six-week-old SMF3 plants.
Total RNA (20 μg) was separated in a 1% agarose gel containing formaldehyde. Ethidium bromide was included to verify equal loading of RNA. After transfer onto Hybond N+membrane, the blots were hybridized with ^32P-labeled NCE, AAP, or GRP cDNA probes. As a control, a duplicate blot was hybridized with a probe complementary to 18S rRNA. Hybridization and washing conditions were performed according to Church et al. ((1984) Proc. Natl. Acad. Sci. USA 81:1991-1995).

Row | Compound | NCE gene expression (transcript level, Northern blot)
1 | OO [H2O2] | negatively regulated; also recorded: down-regulated
2 | CC/C=C\C[C@H]1C(=O)CC[C@@H]1CC(=O)O [jasmonic acid] | negatively regulated; also recorded: down-regulated
3 | O=C(O)C(=O)O [oxalic acid] | negatively regulated
4 | O=C(O)c1ccccc1O [salicylic acid] | negatively regulated; also recorded: down-regulated
